Experimental data reported in patent US10597388B2, “Pyridazinone herbicides” (FMC CORPORATION, priority 2014, dated 2020).

Columns and labels:
Test in all cases: Test D controlled growth environment herbicide test, pre- and postemergence
Assay type in all cases: in vivo
[1] = tested on: canarygrass (Phalaris minor)
Procedure, shortened: (§1)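 Species sown in silt loam and sprayed preemergence, or grown in peat-based medium to 2–18 cm (1- to 4-leaf stage) and sprayed postemergence, with compounds in non-phytotoxic solvent plus surfactant. Visual injury scored versus controls after 14–21 d in a controlled environment, 0 (no effect) to 100 (complete control).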

[2] = tested on: Russian thistle (Salsola kali)
Procedure, shortened: as §1

[3] = tested on: windgrass (Apera spica-venti)
Procedure, shortened: as §1

[4] = tested on: radish, wild (wild radish, Raphanus raphanistrum)
Procedure, shortened: as §1

[5] = tested on: galium (catchweed bedstraw, Galium aparine)
Procedure, shortened: as §1

[6] = tested on: speedwell (bird's-eye speedwell, Veronica persica)
Procedure, shortened: as §1

kochia (Kochia scoparia) = tested on: kochia (Kochia scoparia)
Procedure, shortened: as §1

[7] = tested on: oilseed rape (Brassica napus)
Procedure, shortened: as §1

[8] = tested on: pigweed (Amaranthus retroflexus)
Procedure, shortened: as §1

[9] = tested on: buckwheat, wild (wild buckwheat, Polygonum convolvulus)
Procedure, shortened: as §1

[10] = tested on: field violet (Viola arvensis)
Procedure, shortened: as §1

[11] = tested on: mustard, wild (wild mustard, Sinapis arvensis)
Procedure, shortened: as §1

[12] = tested on: bluegrass (annual bluegrass, Poa annua)
Procedure, shortened: as §1

[13] = Postemergence, 31 g ai/ha, scale 0 to 100 (0 no effect, 100 complete control)
[14] = Postemergence, 125 g ai/ha, visual rating on scale 0 (no effect) to 100 (complete control), 14 to 21 d
[15] = Postemergence, 250 g ai/ha, scale 0 to 100 (0 no effect, 100 complete control)
[16] = Preemergence, 62 g ai/ha, scale 0 to 100 (0 no effect, 100 complete control)
[17] = Preemergence, 125 g ai/ha, scale 0 to 100 (0 no effect, 100 complete control)
[18] = Preemergence, 250 g ai/ha, scale 0 to 100 (0 no effect, 100 complete control)
[19] = postemergence, 62 g ai/ha, scale 0 to 100, 0 no effect, 100 complete control

For `CC(=O)Oc1c(C)nn(C)c(=O)c1-c1c(C)sc2c(C)cc(C)cc12` [Compound 27], the “Canarygrass plant response rating” value [1, 13] was 75, the “Plant response rating, Canarygrass” value [1, 14] was 85 and the “Plant response rating, Canarygrass” value [1, 15] was 90. The “Plant response rating (scale of 0 to 100), Canarygrass” value ([1]; Preemergence, 31 g ai/ha) was 85, the “Plant response rating, Canarygrass” value [1, 16] was 95 and the “Plant response rating, Canarygrass” value [1, 17] was 100. The “Plant response rating, Canarygrass” value [1, 18] was 100, the “Plant response rating, Canarygrass” value [1, 19] was 80 and the “Russian Thistle plant response rating” value [2, 13] was 65. The “Plant response rating, Russian Thistle” value [2, 14] was 70, the “Plant response rating, Russian Thistle” value [2, 15] was 70 and the “Plant response rating (scale of 0 to 100), Russian Thistle” value ([2]; Preemergence, 31 g ai/ha) was 0. For the same molecule, the “Plant response rating, Russian Thistle” value [2, 16] was 10, the “Plant response rating, Russian Thistle” value [2, 17] was 65 and the “Plant response rating, Russian Thistle” value [2, 18] was 75. For the same molecule, the “Plant response rating, Russian Thistle” value [2, 19] was 75, the “Windgrass plant response rating” value [3, 13] was 75 and the “Plant response rating, Windgrass” value [3, 14] was 80. The “Plant response rating, Windgrass” value [3, 15] was 90, the “Plant response rating (scale of 0 to 100), Windgrass” value ([3]; Preemergence, 31 g ai/ha) was 75 and the “Plant response rating, Windgrass” value [3, 16] was 85. For the same molecule, the “Plant response rating, Windgrass” value [3, 17] was 100, the “Plant response rating, Windgrass” value [3, 18] was 100 and the “Plant response rating, Windgrass” value [3, 19] was 75. For the same molecule, the “Radish, Wild plant response rating” value [4, 13] was 65, the “Plant response rating, Radish, Wild” value [4, 14] was 85 and the “Plant response rating, Radish, Wild” value [4, 15] was 90. The “Plant response rating (scale of 0 to 100), Radish, Wild” value ([4]; Preemergence, 31 g ai/ha) was 0, the “Plant response rating, Radish, Wild” value [4, 16] was 50 and the “Plant response rating, Radish, Wild” value [4, 17] was 60. The “Plant response rating, Radish, Wild” value [4, 18] was 95, the “Plant response rating, Radish, Wild” value [4, 19] was 75 and the “Galium plant response rating” value [5, 13] was 100. The “Plant response rating, Galium” value [5, 14] was 100, the “Plant response rating, Galium” value [5, 15] was 100 and the “Plant response rating (scale of 0 to 100), Galium” value ([5]; Preemergence, 31 g ai/ha) was 60. For the same molecule, the “Plant response rating, Galium” value [5, 16] was 70, the “Plant response rating, Galium” value [5, 17] was 85 and the “Plant response rating, Galium” value [5, 18] was 100. The “Plant response rating, Galium” value [5, 19] was 100, the “Speedwell plant response rating” value [6, 13] was 35 and the “Plant response rating, Speedwell” value [6, 14] was 100. The “Plant response rating, Speedwell” value [6, 15] was 100, the “Plant response rating (scale of 0 to 100), Speedwell” value ([6]; Preemergence, 31 g ai/ha) was 75 and the “Plant response rating, Speedwell” value [6, 16] was 100. The “Plant response rating, Speedwell” value [6, 17] was 100, the “Plant response rating, Speedwell” value [6, 18] was 100 and the “Plant response rating, Speedwell” value [6, 19] was 70. For the same molecule, the “Kochia plant response rating” value (kochia (Kochia scoparia); [13]) was 45, the “Plant response rating, Kochia” value (kochia (Kochia scoparia); [14]) was 55 and the “Plant response rating, Kochia” value (kochia (Kochia scoparia); [15]) was 75. For the same molecule, the “Plant response rating (scale of 0 to 100), Kochia” value (kochia (Kochia scoparia); Preemergence, 31 g ai/ha) was 0, the “Plant response rating, Kochia” value (kochia (Kochia scoparia); [16]) was 20 and the “Plant response rating, Kochia” value (kochia (Kochia scoparia); [17]) was 30. For the same molecule, the “Plant response rating, Kochia” value (kochia (Kochia scoparia); [18]) was 60, the “Plant response rating, Kochia” value (kochia (Kochia scoparia); [19]) was 55 and the “Oilseed Rape plant response rating” value [7, 13] was 55. The “Plant response rating, Oilseed Rape” value [7, 14] was 70, the “Plant response rating, Oilseed Rape” value [7, 15] was 85 and the “Plant response rating (scale of 0 to 100), Oilseed Rape” value ([7]; Preemergence, 31 g ai/ha) was 0. For the same molecule, the “Plant response rating, Oilseed Rape” value [7, 16] was 0, the “Plant response rating, Oilseed Rape” value [7, 17] was 0 and the “Plant response rating, Oilseed Rape” value [7, 18] was 35. For the same molecule, the “Plant response rating, Oilseed Rape” value [7, 19] was 65, the “Pigweed plant response rating” value [8, 13] was 75 and the “Plant response rating, Pigweed” value [8, 14] was 95. The “Plant response rating, Pigweed” value [8, 15] was 95, the “Plant response rating (scale of 0 to 100), Pigweed” value ([8]; Preemergence, 31 g ai/ha) was 100 and the “Plant response rating, Pigweed” value [8, 16] was 100. For the same molecule, the “Plant response rating, Pigweed” value [8, 17] was 100, the “Plant response rating, Pigweed” value [8, 18] was 100 and the “Plant response rating, Pigweed” value [8, 19] was 85. The “Buckwheat, Wild plant response rating” value [9, 13] was 100, the “Plant response rating, Buckwheat, Wild” value [9, 14] was 100 and the “Plant response rating, Buckwheat, Wild” value [9, 15] was 100. The “Plant response rating (scale of 0 to 100), Buckwheat, Wild” value ([9]; Preemergence, 31 g ai/ha) was 25, the “Plant response rating, Buckwheat, Wild” value [9, 16] was 30 and the “Plant response rating, Buckwheat, Wild” value [9, 17] was 45. The “Plant response rating, Buckwheat, Wild” value [9, 18] was 80, the “Plant response rating, Buckwheat, Wild” value [9, 19] was 100 and the “Field Violet plant response rating” value [10, 13] was 75. The “Plant response rating, Field Violet” value [10, 14] was 75, the “Plant response rating, Field Violet” value [10, 15] was 85 and the “Plant response rating (scale of 0 to 100), Field Violet” value ([10]; Preemergence, 31 g ai/ha) was 80. For the same molecule, the “Plant response rating, Field Violet” value [10, 16] was 90, the “Plant response rating, Field Violet” value [10, 17] was 95 and the “Plant response rating, Field Violet” value [10, 18] was 95. The “Plant response rating, Field Violet” value [10, 19] was 70, the “Mustard, Wild plant response rating” value [11, 13] was 15 and the “Plant response rating, Mustard, Wild” value [11, 14] was 30. The “Plant response rating, Mustard, Wild” value [11, 15] was 75, the “Plant response rating (scale of 0 to 100), Mustard, Wild” value ([11]; Preemergence, 31 g ai/ha) was 40 and the “Plant response rating, Mustard, Wild” value [11, 16] was 40. For the same molecule, the “Plant response rating, Mustard, Wild” value [11, 17] was 45, the “Plant response rating, Mustard, Wild” value [11, 18] was 65 and the “Plant response rating, Mustard, Wild” value [11, 19] was 40. The “Bluegrass plant response rating” value [12, 13] was 15, the “Plant response rating, Bluegrass” value [12, 14] was 30 and the “Plant response rating, Bluegrass” value [12, 15] was 40. The “Plant response rating (scale of 0 to 100), Bluegrass” value ([12]; Preemergence, 31 g ai/ha) was 25, the “Plant response rating, Bluegrass” value [12, 16] was 35 and the “Plant response rating, Bluegrass” value [12, 17] was 70. For the same molecule, the “Bluegrass plant response rating” value [12, 18] was 80 and the “Plant response rating, Bluegrass” value [12, 19] was 25.
